Results published in patent US6953789B2, “Thiol compounds, their production and use” (Takeda Chemical Industries, Ltd., priority 1998, dated 2005).
pIC50: −log10 of the molar value.

Molecular target: T1, recombinant human MMP-13 (Homo sapiens, UniProt P45452)
T1 construct: made in house; host or cells: baculovirus (pBlueBac4 / Bac-N-Blue; virus made in Sf9), expressed in High-Five insect cells; culture supernatant used
Experiment: Assay of MMP-13 inhibiting activity (fluorogenic peptide substrate)
Assay type: biochemical
Conditions: Table 3; 37° C., 2 hours
Outline: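 Baculovirus-expressed human MMP-13 (High-Five cell supernatant) in pH 7.5 Tris buffer with 200 mM NaCl, 20 mM CaCl2, 0.1% Brij 35, 1 mM 2-mercaptoethanol; reaction started with 40 μM (stock) MOCAc-PLGL-A2pr(DNP)-AR-NH2, 2 h at 37 °C, stopped at pH 3.0. Fluorescence 330/405 nm; IC50 versus no-compound control.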

Compound | pIC50
O=C(SC1CC(=O)N(Cc2ccc(Oc3ccccc3)cc2)C1)c1ccccc1 (centres unmarked) [Example 16, 4-Benzoylthio-1-(4-phenoxybenzyl)pyrrolidin-2-one] | 8.70
O=C(NC(=O)c1ccccc1)S[C@@H]1CC(=O)N(Cc2ccc(Oc3ccccc3)cc2)C1 [Example 56, S-[(3R)-5-oxo-1-(4-phenoxybenzyl)pyrrolidinyl]benzoylthiocarbamate] | 8.85
CCCCCCSS[C@@H]1CC(=O)N(Cc2ccc(Oc3ccccc3)cc2)C1 [Example 80, (4R)-4-(Hexyldisulfanyl)-1-(4-phenoxybenzyl)-2-pyrrolidinone] | 6.00
CCOC(=O)CCS[C@@H]1CC(=O)N(Cc2ccc(Oc3ccccc3)cc2)C1 [Example 92, Ethyl 3-{[(3R)-5-oxo-1-(4-phenoxybenzyl)pyrrolidinyl]sulfanyl}propanoate] | 5.70
O=C(O)CCS[C@@H]1CC(=O)N(Cc2ccc(Oc3ccccc3)cc2)C1 [Example 93, 3-{[(3R)-5-Oxo-1-(4-phenoxybenzyl)pyrrolidinyl]sulfanyl}propanoic acid] | 5.22
CCCNC(=O)SC1CC(=O)N(Cc2ccc(Oc3ccccc3)cc2)C1 (stereo not drawn) [Example 52, S-[5-oxo-1-(4-phenoxybenzyl)-3-pyrrolidinyl]propylcarbamothioate] | 8.70
O=C1C[C@@H](SC(=O)N2CCOCC2)CN1Cc1ccc(Oc2ccccc2)cc1 [Example 63, S-[(3R)-5-oxo-1-(4-phenoxybenzyl)pyrrolidinyl]4-morpholinecarbothioate] | 5.70
COC(=O)SS[C@@H]1CC(=O)N(Cc2ccc(Oc3ccccc3)cc2)C1 [Example 78, (4R)-4-[(Methoxycarbonyl)disulfanyl]-2-oxo-1-(4-phenoxybenzyl)pyrrolidine] | < 5.00
CCOC(=O)NC(=O)S[C@@H]1CC(=O)N(Cc2ccc(Oc3ccccc3)cc2)C1 [Example 57, O-Ethyl S-[(3R)-5-oxo-1-(4-phenoxybenzyl)pyrrolidinyl]imidothiodicarbonate] | 9.09
CC(=O)SC1CC(=O)N(Cc2ccc(Oc3ccccc3)cc2)C1 (centres unmarked) [Example 15, 4-Acetylthio-1-(4-phenoxybenzyl)pyrrolidin-2-one] | 8.00
O=C1C[C@@H](SCCO)CN1Cc1ccc(Oc2ccccc2)cc1 [Example 90, (4R)-4-[(2-Hydroxyethyl)sulfanyl)-1-(4-phenoxybenzyl)-2-pyrrolidinone] | 5.30
CC(C)(C)C(=O)NCS[C@@H]1CC(=O)N(Cc2ccc(Oc3ccccc3)cc2)C1 [Example 101, 2,2-Dimethyl-N-({[(3R)-5-oxo-1-(4-phenoxybenzyl)pyrrolidinyl]sulfanyl}methyl)propanamide] | 5.52
CNC(=O)S[C@@H]1CC(=O)N(Cc2ccc(Oc3ccccc3)cc2)C1 [Example 50, S-[(3R)-5-oxo-1-(4-phenoxybenzyl)pyrrolidinyl]methylthiocarbamate] | 8.52
O=C(Nc1ccccc1)SC1CC(=O)N(Cc2ccc(Oc3ccccc3)cc2)C1 (stereo not drawn) [Example 53, S-[5-oxo-1-(4-phenoxybenzyl)-3-pyrrolidinyl]phenylcarbamothioate] | 9.00

Same assay, conditions: Table 4; 37° C., 2 hours

Compound | pIC50
O=C1CC(S)CN1Cc1cccc(Oc2ccccc2)c1 (centres unmarked) [Example 41, 4-Mercapto-1-(3-phenoxybenzyl)pyrrolidin-2-one] | 6.70

Same assay, conditions: Table 5; 37° C., 2 hours

Compound | pIC50
CC(=O)S[C@H]1CC(=O)N(Cc2ccc(Oc3ccccc3)cc2)[C@H]1C [Example 175, (4S,5S)-4-Acetylthio-5-methyl-1-(4-phenoxybenzyl)pyrrolidin-2-one] | 7.00
CC(=O)S[C@@H]1CC(=O)N(Cc2ccc(Oc3ccccc3)cc2)[C@H]1C [Example 177, (4R,5S)-4-Acetylthio-5-methyl-1-(4-phenoxybenzyl)pyrrolidin-2-one] | 8.70
CCCNC(=O)OC[C@H]1[C@H](SC(C)=O)CC(=O)N1Cc1ccc(Oc2ccccc2)cc1 (relative stereo) [Example 183, trans-4-Acetylthio-5-propylaminocarbonyloxymethyl-1-(4-phenoxybenzyl)pyrrolidin-2-one] | 7.70
C[C@H]1[C@H](S)CC(=O)N1Cc1ccc(Oc2ccccc2)cc1 [Example 178, (4R,5S)-4-Mercapto-5-methyl-1-(4-phenoxybenzyl)pyrrolidin-2-one] | 8.30
CC(=O)S[C@@H]1CC(=O)N(Cc2ccc(Oc3ccccc3)cc2)[C@H]1COCc1ccccc1 (relative stereo) [Example 38, Trans-4-acetylthio-5-benzyloxymethyl-1-(4-phenoxybenzyl)pyrrolidin-2-one] | 8.30

Same assay, conditions: Table 6; 37° C., 2 hours

Compound | pIC50
CC(=O)SC1CN(Cc2ccc(Oc3ccccc3)cc2)C(=O)C1C (stereo not drawn) [Example 194, trans-4-Acetylthio-3-methyl-1-(4-phenoxybenzyl)pyrrolidin-2-one] | 7.52

Same assay, conditions: Table 7; 37° C., 2 hours

Compound | pIC50
O=C1CC(SC2CC(=O)N(Cc3ccc(Oc4ccccc4)cc3)C2=O)C(=O)N1Cc1ccc(Oc2ccccc2)cc1 (centres unmarked) [Example 14] | 7.00

Same assay, conditions: Table 9; 37° C., 2 hours

Compound | pIC50
CC(=O)SC1CC(=O)N(Cc2ccc(Oc3ccc(F)cc3F)cc2)C1 (centres unmarked) [Example 119, 4-Acetylthio-1-[4-(2′,4′-difluorophenoxy)benzyl]pyrrolidin-2-one] | 8.00
(R)-4-Acethylthio-1-[4-(4-chlorophenoxy)benzyl]pyrrolidin-2-one [Example 125] | 8.21
CC(=O)SC1CC(=O)N(Cc2ccc(Oc3ccccc3)c(NS(C)(=O)=O)c2)C1 (centres unmarked) [Example 152, 4-Acetylthio-1-(3-methylsulfonylamino-4-phenoxybenzyl)pyrrolidin-2-one] | < 5.00
O=C1CC(S)CN1Cc1ccc(Oc2ccc(O)cc2)cc1 (centres unmarked) [Example 137, 4-Mercapto-1-[4-(4′-hydroxyphenoxy)benzyl]pyrrolidin-2-one] | 8.52
CCc1ccc(Oc2ccc(CN3C[C@H](SC(C)=O)CC3=O)cc2)cc1 [Example 124, (R)-4-Acethylthio-1-[4-(4′-ethylphenoxy)benzyl]pyrrolidin-2-one] | 8.15
COc1ccc(Oc2ccc(CN3CC(SC(C)=O)CC3=O)cc2)cc1 (centres unmarked) [Example 36, 4-Acetylthio-1-(4-(4′-methoxyphenoxy)benzyl)pyrrolidin-2-one] | 7.30
NC(=O)c1ccc(Oc2ccc(CN3CC(S)CC3=O)cc2)cc1 (centres unmarked) [Example 135, 4-Mercapto-1-[4-(4′-aminocarbonylphenoxy)benzyl]pyrrolidin-2-one] | 8.04

Same assay, conditions: Table 10; 37° C., 2 hours

Compound | pIC50
O=C1CC(S)CN1Cc1ccc(Cc2ccccc2)cc1 (centres unmarked) [Example 160, 4-Mercapto-1-(4-benzylbenzyl)pyrrolidin-2-one] | 7.05
CC(=O)SC1CC(=O)N(Cc2ccc(C(=O)c3ccccc3)cc2)C1 (centres unmarked) [Example 161, 4-Acetylthio-1-(4-benzoylbenzyl)pyrrolidin-2-one] | 6.70
CC(=O)SC1CC(=O)N(Cc2ccc(S(=O)(=O)c3ccccc3)cc2)C1 (centres unmarked) [Example 173, 4-Acetylthio-1-(4-phenylsulfonylbenzyl)pyrrolidin-2-one] | < 5.00
O=C1CC(S)CN1Cc1ccc(Sc2ccccc2)cc1 (centres unmarked) [Example 155, 4-Mercapto-1-(4-phenylthiobenzyl)pyrrolidin-2-one] | 8.15
CC(=O)SC1CC(=O)N(Cc2ccc(Sc3ccccc3)cc2)C1 (centres unmarked) [Example 154, 4-Acetylthio-1-(4-phenylthiobenzyl)pyrrolidin-2-one] | 7.70
CC(=O)SC1CC(=O)N(Cc2ccc(COc3ccccc3)cc2)C1 (centres unmarked) [Example 163, 4-Acetylthio-1-(4-phenoxymethylbenzyl)pyrrolidin-2-one] | 6.30
